According to patent US7632811B2, “Analogs of parathyroid hormone” (Societe de Conseils de Recherches et D'Applications …, priority 1995, dated 2009):
Non-standard residues stand in square brackets, D forms with d. Residues, ends and D or L forms follow the SMILES beside them. Cha = N[C@@H](CC1CCCCC1)C(=O)O; Nle = CCCC[C@H](N)C(=O)O; Dap = NC[C@H](N)C(=O)O; Aib = CC(C)(N)C(=O)O

Target: T1, PTH receptor present on SaOS-2 (human osteosarcoma cells) (Homo sapiens, UniProt Q03431)
T1 construct: host or cells: SaOS-2 human osteosarcoma cells (intact, confluent monolayers)
T1 sequence (Q03431 27-593): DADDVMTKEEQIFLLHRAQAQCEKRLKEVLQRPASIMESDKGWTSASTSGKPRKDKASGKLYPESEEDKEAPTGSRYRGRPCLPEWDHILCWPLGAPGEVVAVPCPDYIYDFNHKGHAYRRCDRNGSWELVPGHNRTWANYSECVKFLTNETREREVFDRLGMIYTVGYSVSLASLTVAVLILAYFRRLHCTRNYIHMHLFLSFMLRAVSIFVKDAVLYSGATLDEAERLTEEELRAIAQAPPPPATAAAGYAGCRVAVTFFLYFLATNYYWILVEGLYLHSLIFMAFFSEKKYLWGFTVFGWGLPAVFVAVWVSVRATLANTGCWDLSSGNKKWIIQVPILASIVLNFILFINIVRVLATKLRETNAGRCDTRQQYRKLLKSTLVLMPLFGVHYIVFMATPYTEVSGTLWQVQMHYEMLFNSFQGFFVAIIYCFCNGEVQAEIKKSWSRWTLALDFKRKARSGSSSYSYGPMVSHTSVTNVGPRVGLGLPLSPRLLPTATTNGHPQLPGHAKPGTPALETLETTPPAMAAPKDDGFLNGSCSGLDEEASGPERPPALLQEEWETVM
Assay: Binding to PTH receptor on SaOS-2 cells (competition with mono-125I-[Nle8,18,Tyr34(3-125I)]bPTH(1-34)NH2)
Settings: Table I, 2 hrs at room temperature, read-out: Kd (half maximal inhibition of binding of mono-125I-[Nle8,18, Tyr34(3-125I)]bPTH(1-34)NH2)
Procedure: A. Binding to PTH Receptor
The peptides of the invention were tested for their ability to bind to the PTH receptor present on SaOS-2 (human osteosarcoma cells). SaOS-2 cells (American Type Culture Collection, Rockville, Md.; ATCC #HTB 85) were maintained in RPMI 1640 medium (Sigma, St. Louis, Mo.) supplemented with 10% fetal bovine serum (FBS) and 2 mM glutamine at 37EC in a humidified atmosphere of 5% CO2 in air. The medium was changed every three or four days, and the cells were subcultured every week by trypsinization.
SaOS-2 cells were maintained for four days until they had reached confluence. The medium was replaced with 5% FBS in RPMI 1640 medium and incubated for 2 hrs at room temperature with 10×10^4 cpm mono-^125I-[Nle^8,18, Tyr^34(3-^125I)]bPTH(1-34)NH2 in the presence of a competing peptides of the invention at various concentrations between 10^−11 M to 10^−4 M. The cells were washed four times with ice-cold PBS and lysed with 0.1 M NaOH, and the radioactivity associated with the cells was counted in a scintillation counter. Synthesis of mono-^125I-[Nle^8,18, Tyr^34(3-^125I)]bPTH(1-34)NH2 was carried out as described in Goldman, M. E., et al., Endocrinol., 123:1468 (1988).
The binding assay was conducted with various peptides of the invention, and the Kd value (half maximal inhibition of binding of mono-^125I-[Nle^8,18, Tyr^34(3-^125I)]bPTH(1-34)NH2) for each peptide was calculated.

CC[C@H](C)[C@H](NC(=O)[C@H](CCC(=O)O)NC(=O)[C@H](CO)NC(=O)[C@@H](NC(=O)[C@@H](N)CO)C(C)C)C(=O)N[C@@H](CCC(N)=O)C(=O)N[C@@H](CC1CCCCC1)C(=O)N[C@@H](CCSC)C(=O)N[C@@H](Cc1c[nH]cn1)C(=O)N[C@@H](CC(N)=O)C(=O)N[C@@H](CC1CCCCC1)C(=O)NCC(=O)N[C@@H](CCCCN)C(=O)N[C@@H](Cc1c[nH]cn1)C(=O)N[C@@H](CC(C)C)C(=O)N[C@@H](CC(N)=O)C(=O)N[C@@H](CO)C(=O)N[C@@H](CCSC)C(=O)NC(C)(C)C(=O)N[C@@H](CCCNC(=N)N)C(=O)N[C@H](C(=O)N[C@@H](CCC(=O)O)C(=O)N[C@@H](Cc1c[nH]c2ccccc12)C(=O)N[C@@H](CC(C)C)C(=O)N[C@@H](CCCNC(=N)N)C(=O)N[C@@H](CCCCN)C(=O)N[C@@H](CCCCN)C(=O)N[C@@H](CC(C)C)C(=O)N[C@@H](CCC(N)=O)C(=O)N[C@@H](CCCCN)C(=O)N[C@H](C(=O)N[C@@H](Cc1c[nH]cn1)C(=O)N[C@@H](CC(N)=O)C(=O)N[C@@H](Cc1ccccc1)C(N)=O)C(C)C)C(C)C [[Cha^7,11, Aib^19, Lys^30]hPTH(1-34)NH2] (H-SVSEIQ[Cha]MHN[Cha]GKHLNSM[Aib]RVEWLRKKLQKVHNF-NH2)
Kd: 4 nM

CCCC[C@H](NC(=O)[C@H](CO)NC(=O)[C@H](CC(N)=O)NC(=O)[C@H](CC(C)C)NC(=O)[C@H](Cc1c[nH]cn1)NC(=O)[C@H](CCCCN)NC(=O)CNC(=O)[C@H](CC(C)C)NC(=O)[C@H](CC(N)=O)NC(=O)[C@H](Cc1c[nH]cn1)NC(=O)[C@H](CCCC)NC(=O)[C@H](CC(C)C)NC(=O)[C@H](CCC(N)=O)NC(=O)[C@@H](NC(=O)[C@H](CCC(=O)O)NC(=O)[C@H](CO)NC(=O)[C@@H](NC(=O)[C@@H](N)CN)C(C)C)[C@@H](C)CC)C(=O)N[C@@H](CCC(=O)O)C(=O)N[C@@H](CCCNC(=N)N)C(=O)N[C@H](C(=O)N[C@@H](CCC(=O)O)C(=O)N[C@@H](Cc1c[nH]c2ccccc12)C(=O)N[C@@H](CC(C)C)C(=O)N[C@@H](CCCNC(=N)N)C(=O)N[C@@H](CCCCN)C(=O)N[C@@H](CCCCN)C(=O)N[C@@H](CC(C)C)C(=O)N[C@@H](CCC(N)=O)C(=O)N[C@@H](CC(=O)O)C(=O)N[C@H](C(=O)N[C@@H](Cc1c[nH]cn1)C(=O)N[C@@H](CC(N)=O)C(=O)N[C@@H](Cc1ccc(O)cc1)C(N)=O)C(C)C)C(C)C [[Dap,Nle^8,18, Tyr^34]hPTH(1-34)NH2] (H-[Dap]VSEIQL[Nle]HNLGKHLNS[Nle]ERVEWLRKKLQDVHNY-NH2)
Kd: 150 nM

CC[C@H](C)[C@H](NC(=O)[C@H](CCC(=O)O)NC(=O)[C@H](CO)NC(=O)[C@@H](NC(=O)[C@@H](N)CO)C(C)C)C(=O)N[C@@H](CCC(N)=O)C(=O)N[C@@H](CC(C)C)C(=O)N[C@@H](CCSC)C(=O)N[C@@H](Cc1c[nH]cn1)C(=O)N[C@@H](CC(N)=O)C(=O)N[C@@H](CC(C)C)C(=O)NCC(=O)N[C@@H](CCCCN)C(=O)N[C@@H](Cc1c[nH]cn1)C(=O)N[C@@H](CC(C)C)C(=O)N[C@@H](CC(N)=O)C(=O)N[C@@H](CO)C(=O)N[C@@H](CCSC)C(=O)N[C@@H](CCC(=O)O)C(=O)N[C@@H](CCCNC(=N)N)C(=O)N[C@H](C(=O)N[C@@H](CCC(=O)O)C(=O)N[C@@H](Cc1c[nH]c2ccccc12)C(=O)N[C@@H](CC(C)C)C(=O)N[C@@H](CCCNC(=N)N)C(=O)N[C@@H](CCCCN)C(=O)N[C@@H](CCCCN)C(=O)N[C@@H](CC(C)C)C(=O)N[C@@H](CCC(N)=O)C(=O)N[C@@H](CC(=O)O)C(=O)N[C@@H](CC1CCCCC1)C(=O)N[C@@H](Cc1c[nH]cn1)C(=O)N[C@@H](CC(N)=O)C(=O)N[C@@H](Cc1ccccc1)C(N)=O)C(C)C [[Cha^31]hPTH(1-34)NH2] (H-SVSEIQLMHNLGKHLNSMERVEWLRKKLQD[Cha]HNF-NH2)
Kd: 30 nM

CC[C@H](C)[C@H](NC(=O)[C@H](CCC(=O)O)NC(=O)[C@H](CO)NC(=O)[C@@H](NC(=O)[C@@H](N)CO)C(C)C)C(=O)N[C@@H](CCC(N)=O)C(=O)N[C@@H](CC(C)C)C(=O)N[C@@H](CCSC)C(=O)N[C@@H](Cc1c[nH]cn1)C(=O)N[C@@H](CC(N)=O)C(=O)N[C@@H](CC(C)C)C(=O)NCC(=O)N[C@@H](CCCCN)C(=O)N[C@@H](Cc1c[nH]cn1)C(=O)N[C@@H](CC(C)C)C(=O)N[C@@H](CC(N)=O)C(=O)N[C@@H](CO)C(=O)N[C@@H](CCSC)C(=O)NC(C)(C)C(=O)N[C@@H](CCCNC(=N)N)C(=O)N[C@H](C(=O)N[C@@H](CCC(=O)O)C(=O)N[C@@H](Cc1c[nH]c2ccccc12)C(=O)N[C@@H](CC(C)C)C(=O)N[C@@H](CCCNC(=N)N)C(=O)N[C@@H](CCCCN)C(=O)N[C@@H](CCCCN)C(=O)N[C@@H](CC(C)C)C(=O)N[C@@H](CCC(N)=O)C(=O)N[C@@H](CC(=O)O)C(=O)N[C@H](C(=O)N[C@@H](Cc1c[nH]cn1)C(=O)N[C@@H](CC(N)=O)C(=O)N[C@@H](Cc1ccccc1)C(N)=O)C(C)C)C(C)C [[Aib^19]hPTH(1-34)NH2] (H-SVSEIQLMHNLGKHLNSM[Aib]RVEWLRKKLQDVHNF-NH2)
Kd: 5 nM

CC[C@H](C)[C@H](NC(=O)[C@H](CCC(=O)O)NC(=O)[C@H](CO)NC(=O)[C@@H](NC(=O)[C@@H](N)CO)C(C)C)C(=O)N[C@@H](CCC(N)=O)C(=O)N[C@@H](CC(C)C)C(=O)N[C@@H](CCSC)C(=O)N[C@@H](Cc1c[nH]cn1)C(=O)N[C@@H](CC(N)=O)C(=O)N[C@@H](CC(C)C)C(=O)NCC(=O)N[C@@H](CCCCN)C(=O)N[C@@H](Cc1c[nH]cn1)C(=O)N[C@@H](CC(C)C)C(=O)N[C@@H](CC(N)=O)C(=O)N[C@@H](CO)C(=O)N[C@@H](CCSC)C(=O)N[C@@H](CCC(=O)O)C(=O)N[C@@H](CCCNC(=N)N)C(=O)N[C@H](C(=O)N[C@@H](CCC(=O)O)C(=O)N[C@@H](CC1CCCCC1)C(=O)N[C@@H](CC(C)C)C(=O)N[C@@H](CCCNC(=N)N)C(=O)N[C@@H](CCCCN)C(=O)N[C@@H](CCCCN)C(=O)N[C@@H](CC(C)C)C(=O)N[C@@H](CCC(N)=O)C(=O)N[C@@H](CC(=O)O)C(=O)N[C@H](C(=O)N[C@@H](Cc1c[nH]cn1)C(=O)N[C@@H](CC(N)=O)C(=O)N[C@@H](Cc1ccccc1)C(N)=O)C(C)C)C(C)C [[Cha^23]hPTH(1-34)NH2] (H-SVSEIQLMHNLGKHLNSMERVE[Cha]LRKKLQDVHNF-NH2)
Kd: 200 nM

CC[C@H](C)[C@H](NC(=O)[C@H](CCC(=O)O)NC(=O)[C@H](CO)NC(=O)[C@@H](NC(=O)[C@@H](N)CO)C(C)C)C(=O)N[C@@H](CCC(N)=O)C(=O)N[C@@H](CC(C)C)C(=O)N[C@@H](CCSC)C(=O)N[C@@H](Cc1c[nH]cn1)C(=O)N[C@@H](CC(N)=O)C(=O)N[C@@H](CC1CCCCC1)C(=O)NCC(=O)N[C@@H](CCCCN)C(=O)N[C@@H](Cc1c[nH]cn1)C(=O)N[C@@H](CC(C)C)C(=O)N[C@@H](CC(N)=O)C(=O)N[C@@H](CO)C(=O)N[C@@H](CCSC)C(=O)N[C@@H](CCC(=O)O)C(=O)N[C@@H](CCCNC(=N)N)C(=O)N[C@H](C(=O)N[C@@H](CCC(=O)O)C(=O)N[C@@H](Cc1c[nH]c2ccccc12)C(=O)N[C@@H](CC(C)C)C(=O)N[C@@H](CCCNC(=N)N)C(=O)N[C@@H](CCCCN)C(=O)N[C@@H](CCCCN)C(=O)N[C@@H](CC(C)C)C(=O)N[C@@H](CCC(N)=O)C(=O)N[C@@H](CC(=O)O)C(=O)N[C@H](C(=O)N[C@@H](Cc1c[nH]cn1)C(=O)N[C@@H](CC(N)=O)C(=O)N[C@@H](Cc1ccccc1)C(N)=O)C(C)C)C(C)C [[Cha^11]hPTH(1-34)NH2] (H-SVSEIQLMHN[Cha]GKHLNSMERVEWLRKKLQDVHNF-NH2)
Kd: 5 nM
